# From the supplement of paper PMC4862054
# Tested on: BT-474
# Experiment: normalised response (% of control), CellTox Green; higher = less cell death (100 = DMSO, 0 = benzethonium chloride kill control)
# Details: incubation time: 72 h
# Outline: (§1)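 Each value is the plate-normalised signal at one concentration of the series. Breast cancer cell lines (20 µl suspension) were incubated 72 h in 384-well plates with compound at 5 concentrations in 10-fold steps over a compound-specific 10,000-fold range. CellTox Green and then CellTiter-Glo were read, and each plate was scaled to 0.1 % DMSO (100) and a positive kill control (0).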
row,Structure (SMILES),normalised response [%]
1,O=C(O)C1(C(=O)O)CCC1.[NH2-].[NH2-].[Pt+2] [Carboplatin] (1000 nM),97.7
2,CC[C@H](C)C(=O)O[C@H]1C[C@H](O)C=C2C=C[C@H](C)[C@H](CC[C@@H](O)C[C@@H](O)CC(=O)O)[C@H]21 [Pravastatin] (1000 nM),99.3
3,Cc1cnc(NC(=O)Nc2cc(Br)c(C)cc2OC[C@@H]2CNCCO2)cn1 [Rabusertib] (100 nM),102
4,COc1cc2nccc(Oc3ccc(NC(=O)Nc4cc(C)on4)c(Cl)c3)c2cc1OC [Tivozanib] (1000 nM),101

# Tested on: CAL-51
# Experiment: as above
# Details: incubation time: 72 h
# Outline: as §1
row,Structure (SMILES),normalised response [%]
1,O=C(Cc1ccc(-c2ccc(OCCN3CCOCC3)cc2)cn1)NCc1ccccc1 [KX2-391] (1000 nM),30.9
2,C=CCc1cccc(/C=N/NC(=O)CN2CCN(Cc3ccccc3)CC2)c1O [PAC-1] (1000 nM),73.1
3,Oc1ncc(N(CCCl)CCCl)c(O)n1 [Uracil mustard] (1000 nM),104
4,O=C(O)C(=O)O.[NH-][C@@H]1CCCC[C@H]1[NH-].[Pt+2] [Oxaliplatin] (1000 nM),108
5,Nc1nc2[nH]cc(CCc3ccc(C(=O)N[C@@H](CCC(=O)O)C(=O)O)cc3)c2c(=O)[nH]1 [Pemetrexed] (1000 nM),98.2
6,O=C(O)C1(C(=O)O)CCC1.[NH2-].[NH2-].[Pt+2] [Carboplatin] (1000 nM),106
7,CC[C@H](C)C(=O)O[C@H]1C[C@H](O)C=C2C=C[C@H](C)[C@H](CC[C@@H](O)C[C@@H](O)CC(=O)O)[C@H]21 [Pravastatin] (1000 nM),87.6
8,Cc1cnc(NC(=O)Nc2cc(Br)c(C)cc2OC[C@@H]2CNCCO2)cn1 [Rabusertib] (100 nM),85.5
9,COc1cc2nccc(Oc3ccc(NC(=O)Nc4cc(C)on4)c(Cl)c3)c2cc1OC [Tivozanib] (1000 nM),87.7

# Tested on: BT-549
# Experiment: as above
# Details: incubation time: 72 h
# Outline: as §1
row,Structure (SMILES),normalised response [%]
1,O=C(Cc1ccc(-c2ccc(OCCN3CCOCC3)cc2)cn1)NCc1ccccc1 [KX2-391] (1000 nM),76.7
2,C=CCc1cccc(/C=N/NC(=O)CN2CCN(Cc3ccccc3)CC2)c1O [PAC-1] (1000 nM),61.6
3,Oc1ncc(N(CCCl)CCCl)c(O)n1 [Uracil mustard] (1000 nM),103
4,O=C(O)C(=O)O.[NH-][C@@H]1CCCC[C@H]1[NH-].[Pt+2] [Oxaliplatin] (1000 nM),121
5,Nc1nc2[nH]cc(CCc3ccc(C(=O)N[C@@H](CCC(=O)O)C(=O)O)cc3)c2c(=O)[nH]1 [Pemetrexed] (1000 nM),82.9
6,O=C(O)C1(C(=O)O)CCC1.[NH2-].[NH2-].[Pt+2] [Carboplatin] (1000 nM),62
7,CC[C@H](C)C(=O)O[C@H]1C[C@H](O)C=C2C=C[C@H](C)[C@H](CC[C@@H](O)C[C@@H](O)CC(=O)O)[C@H]21 [Pravastatin] (1000 nM),85.2
8,Cc1cnc(NC(=O)Nc2cc(Br)c(C)cc2OC[C@@H]2CNCCO2)cn1 [Rabusertib] (100 nM),123
9,COc1cc2nccc(Oc3ccc(NC(=O)Nc4cc(C)on4)c(Cl)c3)c2cc1OC [Tivozanib] (1000 nM),129

# Tested on: MDA-MB-453
# Experiment: as above
# Details: incubation time: 72 h
# Outline: as §1
row,Structure (SMILES),normalised response [%]
1,O=C(Cc1ccc(-c2ccc(OCCN3CCOCC3)cc2)cn1)NCc1ccccc1 [KX2-391] (1000 nM),49.9
2,C=CCc1cccc(/C=N/NC(=O)CN2CCN(Cc3ccccc3)CC2)c1O [PAC-1] (1000 nM),106
3,Oc1ncc(N(CCCl)CCCl)c(O)n1 [Uracil mustard] (1000 nM),112
4,O=C(O)C(=O)O.[NH-][C@@H]1CCCC[C@H]1[NH-].[Pt+2] [Oxaliplatin] (1000 nM),106
5,Nc1nc2[nH]cc(CCc3ccc(C(=O)N[C@@H](CCC(=O)O)C(=O)O)cc3)c2c(=O)[nH]1 [Pemetrexed] (1000 nM),106
6,O=C(O)C1(C(=O)O)CCC1.[NH2-].[NH2-].[Pt+2] [Carboplatin] (1000 nM),111
7,CC[C@H](C)C(=O)O[C@H]1C[C@H](O)C=C2C=C[C@H](C)[C@H](CC[C@@H](O)C[C@@H](O)CC(=O)O)[C@H]21 [Pravastatin] (1000 nM),105
8,Cc1cnc(NC(=O)Nc2cc(Br)c(C)cc2OC[C@@H]2CNCCO2)cn1 [Rabusertib] (100 nM),106

# Tested on: HCC1599
# Experiment: as above
# Details: incubation time: 72 h
# Outline: as §1
row,Structure (SMILES),normalised response [%]
1,O=C(Cc1ccc(-c2ccc(OCCN3CCOCC3)cc2)cn1)NCc1ccccc1 [KX2-391] (1000 nM),71.9
2,C=CCc1cccc(/C=N/NC(=O)CN2CCN(Cc3ccccc3)CC2)c1O [PAC-1] (1000 nM),98.4
3,Oc1ncc(N(CCCl)CCCl)c(O)n1 [Uracil mustard] (1000 nM),96
4,O=C(O)C(=O)O.[NH-][C@@H]1CCCC[C@H]1[NH-].[Pt+2] [Oxaliplatin] (1000 nM),93.9
5,Nc1nc2[nH]cc(CCc3ccc(C(=O)N[C@@H](CCC(=O)O)C(=O)O)cc3)c2c(=O)[nH]1 [Pemetrexed] (1000 nM),92
6,O=C(O)C1(C(=O)O)CCC1.[NH2-].[NH2-].[Pt+2] [Carboplatin] (1000 nM),104
7,CC[C@H](C)C(=O)O[C@H]1C[C@H](O)C=C2C=C[C@H](C)[C@H](CC[C@@H](O)C[C@@H](O)CC(=O)O)[C@H]21 [Pravastatin] (1000 nM),95.4
8,Cc1cnc(NC(=O)Nc2cc(Br)c(C)cc2OC[C@@H]2CNCCO2)cn1 [Rabusertib] (100 nM),103
9,COc1cc2nccc(Oc3ccc(NC(=O)Nc4cc(C)on4)c(Cl)c3)c2cc1OC [Tivozanib] (1000 nM),104

# Tested on: MDA-MB-231
# Experiment: as above
# Details: incubation time: 72 h
# Outline: as §1
row,Structure (SMILES),normalised response [%]
1,O=C(Cc1ccc(-c2ccc(OCCN3CCOCC3)cc2)cn1)NCc1ccccc1 [KX2-391] (1000 nM),-59.4
2,C=CCc1cccc(/C=N/NC(=O)CN2CCN(Cc3ccccc3)CC2)c1O [PAC-1] (1000 nM),107
3,Oc1ncc(N(CCCl)CCCl)c(O)n1 [Uracil mustard] (1000 nM),107
4,O=C(O)C(=O)O.[NH-][C@@H]1CCCC[C@H]1[NH-].[Pt+2] [Oxaliplatin] (1000 nM),98.2
5,Nc1nc2[nH]cc(CCc3ccc(C(=O)N[C@@H](CCC(=O)O)C(=O)O)cc3)c2c(=O)[nH]1 [Pemetrexed] (1000 nM),88
6,O=C(O)C1(C(=O)O)CCC1.[NH2-].[NH2-].[Pt+2] [Carboplatin] (1000 nM),106
7,CC[C@H](C)C(=O)O[C@H]1C[C@H](O)C=C2C=C[C@H](C)[C@H](CC[C@@H](O)C[C@@H](O)CC(=O)O)[C@H]21 [Pravastatin] (1000 nM),85.4
8,Cc1cnc(NC(=O)Nc2cc(Br)c(C)cc2OC[C@@H]2CNCCO2)cn1 [Rabusertib] (100 nM),118
9,COc1cc2nccc(Oc3ccc(NC(=O)Nc4cc(C)on4)c(Cl)c3)c2cc1OC [Tivozanib] (1000 nM),110

# Tested on: Hs578T
# Experiment: as above
# Details: incubation time: 72 h
# Outline: as §1
row,Structure (SMILES),normalised response [%]
1,O=C(Cc1ccc(-c2ccc(OCCN3CCOCC3)cc2)cn1)NCc1ccccc1 [KX2-391] (1000 nM),38.4
2,C=CCc1cccc(/C=N/NC(=O)CN2CCN(Cc3ccccc3)CC2)c1O [PAC-1] (1000 nM),104
3,Oc1ncc(N(CCCl)CCCl)c(O)n1 [Uracil mustard] (1000 nM),107
4,O=C(O)C(=O)O.[NH-][C@@H]1CCCC[C@H]1[NH-].[Pt+2] [Oxaliplatin] (1000 nM),63.9
5,Nc1nc2[nH]cc(CCc3ccc(C(=O)N[C@@H](CCC(=O)O)C(=O)O)cc3)c2c(=O)[nH]1 [Pemetrexed] (1000 nM),101
6,O=C(O)C1(C(=O)O)CCC1.[NH2-].[NH2-].[Pt+2] [Carboplatin] (1000 nM),103
7,CC[C@H](C)C(=O)O[C@H]1C[C@H](O)C=C2C=C[C@H](C)[C@H](CC[C@@H](O)C[C@@H](O)CC(=O)O)[C@H]21 [Pravastatin] (1000 nM),95.2
8,Cc1cnc(NC(=O)Nc2cc(Br)c(C)cc2OC[C@@H]2CNCCO2)cn1 [Rabusertib] (100 nM),55.6
9,COc1cc2nccc(Oc3ccc(NC(=O)Nc4cc(C)on4)c(Cl)c3)c2cc1OC [Tivozanib] (1000 nM),93

# Tested on: HDQ-P1
# Experiment: as above
# Details: incubation time: 72 h
# Outline: as §1
row,Structure (SMILES),normalised response [%]
1,O=C(Cc1ccc(-c2ccc(OCCN3CCOCC3)cc2)cn1)NCc1ccccc1 [KX2-391] (1000 nM),99.8
2,C=CCc1cccc(/C=N/NC(=O)CN2CCN(Cc3ccccc3)CC2)c1O [PAC-1] (1000 nM),112
3,Oc1ncc(N(CCCl)CCCl)c(O)n1 [Uracil mustard] (1000 nM),113
4,O=C(O)C(=O)O.[NH-][C@@H]1CCCC[C@H]1[NH-].[Pt+2] [Oxaliplatin] (1000 nM),102
5,Nc1nc2[nH]cc(CCc3ccc(C(=O)N[C@@H](CCC(=O)O)C(=O)O)cc3)c2c(=O)[nH]1 [Pemetrexed] (1000 nM),110
6,O=C(O)C1(C(=O)O)CCC1.[NH2-].[NH2-].[Pt+2] [Carboplatin] (1000 nM),100
7,CC[C@H](C)C(=O)O[C@H]1C[C@H](O)C=C2C=C[C@H](C)[C@H](CC[C@@H](O)C[C@@H](O)CC(=O)O)[C@H]21 [Pravastatin] (1000 nM),112
8,Cc1cnc(NC(=O)Nc2cc(Br)c(C)cc2OC[C@@H]2CNCCO2)cn1 [Rabusertib] (100 nM),80.4
9,COc1cc2nccc(Oc3ccc(NC(=O)Nc4cc(C)on4)c(Cl)c3)c2cc1OC [Tivozanib] (1000 nM),92.8

# Tested on: CAL-148
# Experiment: as above
# Details: incubation time: 72 h
# Outline: as §1
row,Structure (SMILES),normalised response [%]
1,O=C(Cc1ccc(-c2ccc(OCCN3CCOCC3)cc2)cn1)NCc1ccccc1 [KX2-391] (1000 nM),74.2
2,C=CCc1cccc(/C=N/NC(=O)CN2CCN(Cc3ccccc3)CC2)c1O [PAC-1] (1000 nM),104
3,Oc1ncc(N(CCCl)CCCl)c(O)n1 [Uracil mustard] (1000 nM),103
4,Nc1nc2[nH]cc(CCc3ccc(C(=O)N[C@@H](CCC(=O)O)C(=O)O)cc3)c2c(=O)[nH]1 [Pemetrexed] (1000 nM),89.9
5,O=C(O)C1(C(=O)O)CCC1.[NH2-].[NH2-].[Pt+2] [Carboplatin] (1000 nM),105
6,CC[C@H](C)C(=O)O[C@H]1C[C@H](O)C=C2C=C[C@H](C)[C@H](CC[C@@H](O)C[C@@H](O)CC(=O)O)[C@H]21 [Pravastatin] (1000 nM),99.8
7,Cc1cnc(NC(=O)Nc2cc(Br)c(C)cc2OC[C@@H]2CNCCO2)cn1 [Rabusertib] (100 nM),108
8,COc1cc2nccc(Oc3ccc(NC(=O)Nc4cc(C)on4)c(Cl)c3)c2cc1OC [Tivozanib] (1000 nM),104

# Tested on: DU-4475
# Experiment: as above
# Details: incubation time: 72 h
# Outline: as §1
row,Structure (SMILES),normalised response [%]
1,O=C(Cc1ccc(-c2ccc(OCCN3CCOCC3)cc2)cn1)NCc1ccccc1 [KX2-391] (1000 nM),101
2,C=CCc1cccc(/C=N/NC(=O)CN2CCN(Cc3ccccc3)CC2)c1O [PAC-1] (1000 nM),101
3,Oc1ncc(N(CCCl)CCCl)c(O)n1 [Uracil mustard] (1000 nM),105
4,O=C(O)C(=O)O.[NH-][C@@H]1CCCC[C@H]1[NH-].[Pt+2] [Oxaliplatin] (1000 nM),98.1
5,Nc1nc2[nH]cc(CCc3ccc(C(=O)N[C@@H](CCC(=O)O)C(=O)O)cc3)c2c(=O)[nH]1 [Pemetrexed] (1000 nM),98.2
6,O=C(O)C1(C(=O)O)CCC1.[NH2-].[NH2-].[Pt+2] [Carboplatin] (1000 nM),107
7,CC[C@H](C)C(=O)O[C@H]1C[C@H](O)C=C2C=C[C@H](C)[C@H](CC[C@@H](O)C[C@@H](O)CC(=O)O)[C@H]21 [Pravastatin] (1000 nM),99
8,Cc1cnc(NC(=O)Nc2cc(Br)c(C)cc2OC[C@@H]2CNCCO2)cn1 [Rabusertib] (100 nM),106
9,COc1cc2nccc(Oc3ccc(NC(=O)Nc4cc(C)on4)c(Cl)c3)c2cc1OC [Tivozanib] (1000 nM),96.5
